Source: patent publication US7897582B2, “Oligonucleotide compositions and methods for the modulation of the expression of B7 protein” (Isis Pharmaceuticals, Inc., priority 2003, dated 2011)
Strand notation (5' to 3'): a small letter for the sugar, then the base; units joined by * are phosphorothioate-linked, units joined directly phosphodiester-linked; [ ] holds rarer units or linkages, { } end groups; capitals alone tell only the bases. e = 2'-O-(2-methoxyethyl) (MOE); [5mC] = 5-methylcytosine; d = 2'-deoxy (DNA)

Columns and labels:
Human B7-1 mRNA = Human B7-1 mRNA expression in COS-7 cells, screened as in Example 4; type: cell-based; settings: human B7-1 mRNA; Table 7
hB7-2 mRNA = test: Ribonuclease protection assay of hB7-2 mRNA in transfected COS-7 cells; type: cell-based, human; settings: human B7-2 mRNA; Table 12
Procedure: For ribonuclease protection assays, cells were harvested 18 hours after completion of oligonucleotide treatment using a Totally RNA™ kit (Ambion, Austin, Tex.). The probes for the assay were generated from plasmids pcB7-2 (linearized by digestion with Bgl II) and pTRI-b-actin (Ambion Inc., Austin, Tex.). In vitro transcription of the linearized plasmid from the SP6 promoter was performed in the presence of α-^32P-UTP (800 Ci/mmole) yielding an antisense RNA complementary to the 3′ end of B7-2 (position 1044-1391). The probe was gel-purified after treatment with DNase I to remove DNA template. Ribonuclease protection assays were carried out using an RPA II™ kit (Ambion) according to the manufacturer's directions. Total RNA (5 μg) was hybridized overnight, at 42° C., with 10^5 cpm of the B7-2 probe or a control beta-actin probe. The hybridization reaction was then treated, at 37° C. for 30 minutes, with 0.4 units of RNase A and 2 units of RNase T1. Protected RNA was precipitated, resuspended in 10 μL of gel loading buffer and electrophoresed on a 6% acrylamide gel with 50% w/v urea at 20 W. The gel was then exposed and the lanes quantitated using a PhosphorImager (Molecular Dynamics, Sunnyvale, Calif.) essentially according to the manufacturer's instructions.
The oligonucleotides were screened as described in Example 4 except that the concentration of oligonucleotide was varied as shown in Table 13. Mismatch control oligonucleotides were included.

13805 (antisense C^{S}C^{S}T^{S}G^{S}C^{S}C^{S}T^{S}C^{S}C^{S}G^{S}T^{S}G^{S}T^{S}G^{S}T^{S}G^{S}G^{S}C^{S}C^{S}C; as printed in the source, key not given here) [compound 13805]
% mRNA EXPRESSION (Human B7-1 mRNA): 46%
% mRNA INHIBITION (Human B7-1 mRNA): 54%

22285 (e[5mC]*eA*eG*eA*eA*dG*d[5mC]*dA*dA*dG*dG*dT*dG*dG*dT*eA*eA*eG*eA*eA; antisense) [compound 22285]
% mRNA EXPRESSION (hB7-2 mRNA): 74%
% mRNA INHIBITION (hB7-2 mRNA): 26%

22286 (eG*e[5mC]*e[5mC]*eT*eG*dT*d[5mC]*d[5mC]*dA*d[5mC]*dT*dG*dT*dA*dG*e[5mC]*eT*e[5mC]*e[5mC]*eA; antisense) [compound 22286]
% mRNA EXPRESSION (hB7-2 mRNA): 39%

22288 (eT*e[5mC]*eA*eG*eA*dG*dG*dA*dG*d[5mC]*dA*dG*d[5mC]*dA*d[5mC]*e[5mC]*eA*eG*eA*eG; antisense) [compound 22288]
% mRNA EXPRESSION (hB7-2 mRNA): 38%

22289 (eT*eG*eG*e[5mC]*eA*dT*dG*dG*d[5mC]*dA*dG*dG*dT*d[5mC]*dT*eG*e[5mC]*eA*eG*eT; antisense) [compound 22289]
% mRNA EXPRESSION (hB7-2 mRNA): 41%

22290 (eA*eG*e[5mC]*eT*e[5mC]*dA*d[5mC]*dT*d[5mC]*dA*dG*dG*d[5mC]*dT*dT*eT*eG*eG*eT*eT; antisense) [compound 22290]
% mRNA EXPRESSION (hB7-2 mRNA): 42%

22291 (eT*eG*e[5mC]*e[5mC]*eT*dA*dA*dG*dT*dA*dT*dA*d[5mC]*d[5mC]*dT*e[5mC]*eA*eT*eT*e[5mC]; antisense) [compound 22291]
% mRNA EXPRESSION (hB7-2 mRNA): 41%

22292 (e[5mC]*eT*eG*eT*e[5mC]*dA*dA*dA*dT*dT*dT*d[5mC]*dT*d[5mC]*dT*eT*eT*eG*e[5mC]*e[5mC]; antisense) [compound 22292]
% mRNA EXPRESSION (hB7-2 mRNA): 39%

22293 (e[5mC]*eA*eT*eA*eT*dA*d[5mC]*dT*dT*dG*dG*dA*dA*dT*dG*eA*eA*e[5mC]*eA*e[5mC]; antisense) [compound 22293]
% mRNA EXPRESSION (hB7-2 mRNA): 43%

22295 (eT*eG*eA*eT*e[5mC]*dT*dG*dA*dA*dG*dA*dT*dT*dG*dT*eG*eA*eA*eG*eT; antisense) [compound 22295]
% mRNA EXPRESSION (hB7-2 mRNA): 66%
% mRNA INHIBITION (hB7-2 mRNA): 34%

22296 (eA*eA*eG*e[5mC]*e[5mC]*d[5mC]*dT*dT*dG*dT*d[5mC]*d[5mC]*dT*dT*dG*eA*eT*e[5mC]*eT*eG; antisense) [compound 22296]
% mRNA EXPRESSION (hB7-2 mRNA): 42%

22297 (eT*eG*eT*eG*eA*dT*dG*dG*dA*dT*dG*dA*dT*dA*d[5mC]*eA*eT*eT*eG*eA; antisense) [compound 22297]
% mRNA EXPRESSION (hB7-2 mRNA): 54%
% mRNA INHIBITION (hB7-2 mRNA): 46%

22298 (eT*e[5mC]*eA*eG*eG*dT*dT*dG*dA*d[5mC]*dT*dG*dA*dA*dG*eT*eT*eA*eG*e[5mC]; antisense) [compound 22298]
% mRNA EXPRESSION (hB7-2 mRNA): 53%
% mRNA INHIBITION (hB7-2 mRNA): 47%

22299 (eG*eT*eG*eT*eA*dT*dA*dG*dA*dT*dG*dA*dG*d[5mC]*dA*eG*eG*eT*e[5mC]*eA; antisense) [compound 22299]
% mRNA EXPRESSION (hB7-2 mRNA): 46%

22300 (eT*e[5mC]*eT*eG*eT*dG*dA*d[5mC]*dA*dT*dT*dA*dT*d[5mC]*dT*eT*eG*eA*eG*eA; antisense) [compound 22300]
% mRNA EXPRESSION (hB7-2 mRNA): 39%

22301 (eA*eA*eG*eA*eT*dA*dA*dA*dA*dG*d[5mC]*d[5mC]*dG*d[5mC]*dG*eT*e[5mC]*eT*eT*eG; antisense) [compound 22301]
% mRNA EXPRESSION (hB7-2 mRNA): 51%
